Measurements from patent US20240043404A1 (AbbVie Inc., priority 2009, published 2024).

What follows are compounds tested on RS4;11 cells (assay: RS4;11 cell viability assay (CellTiter Glo)). Settings: 50,000 cells per well, 10% human serum, 48 hours; read-out: RS4; 11 EC50 Values.
Type: cell-based, human
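Further: acute lymphoblastic leukemia line RS4,11, EC50 derived from percentage of viable cells after treatment relative to untreated controls, cell killing taken as a measure of Bcl-2 inhibition.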
Procedure: The acute lymphoblastic leukemia (ALL) cell line RS4;11 was used as the primary human cell line to assess the cellular activity of Bcl-2 selective agents in vitro and their efficacy in vivo.
Cell cytotoxicity EC50 values were assessed using CellTiter Glo (Promega) according to the manufacturer's recommendations. The EC50 values were determined as a percentage of viable cells following treatment compared to the untreated control cells.

SMILES	EC50
CC1(C)CCC(CN2CCN(c3ccc(C(=O)NS(=O)(=O)c4ccc(NC[C@H]5CC[C@](C)(O)CC5)c([N+](=O)[O-])c4)c(Oc4cnc5[nH]ccc5c4)c3)CC2)=C(c2ccc(Cl)cc2)C1 [Example 338, 4-(4-{[2-(4-chlorophenyl)-4,4-dimethylcyclohex-1-en-1-yl]methyl}piperazin-1-yl)-N-[(4-{[(cis-4-hydroxy-4-methylcyclohexyl)methyl]amino}-3-nitrophenyl)sulfonyl]-2-(1H-pyrrolo[2,3-b]pyridin-5-yloxy)benzamide]	3.4 nM

Same assay, conditions: Homo sapiens, RS4-11, 48 h, 50,000 cells per well, 10% human serum, 48 hours; read-out: RS4; 11 EC50 Values

SMILES	EC50
CC1(C)CCC(CN2CCN(c3ccc(C(=O)NS(=O)(=O)c4cc(F)c(NCC5CCOCC5)c(Cl)c4)c(Oc4cnc5[nH]ccc5c4)c3)CC2)=C(c2ccc(Cl)cc2)C1 [Example 86, N-({3-chloro-5-fluoro-4-[(tetrahydro-2H-pyran-4-ylmethyl)amino]phenyl}sulfonyl)-4-(4-{[2-(4-chlorophenyl)-4,4-dimethylcyclohex-1-en-1-yl]methyl}piperazin-1-yl)-2-(1H-pyrrolo[2,3-b]pyridin-5-yloxy)benzamide]	1020 nM
CC1(C)CC(c2ccc(Cl)cc2)=C(CN2CCN(c3ccc(C(=O)NS(=O)(=O)c4cnc(OCC5CCOCC5)c(Cl)c4)c(Oc4cnc5[nH]ccc5c4)c3)CC2)CO1 [Example 41, 4-(4-{[4-(4-chlorophenyl)-6,6-dimethyl-5,6-dihydro-2H-pyran-3-yl]methyl}piperazin-1-yl)-N-{[5-chloro-6-(tetrahydro-2H-pyran-4-ylmethoxy)pyridin-3-yl]sulfonyl}-2-(1H-pyrrolo[2,3-b]pyridin-5-yloxy)benzamide]	58 nM
CC1(C)CCC(CN2CCN(c3ccc(C(=O)NS(=O)(=O)c4cnc(OCCC5CCOCC5)c(C#N)c4)c(Oc4cnc5[nH]ccc5c4)c3)CC2)=C(c2ccc(Cl)cc2)C1 [Example 278, 4-(4-{[2-(4-chlorophenyl)-4,4-dimethylcyclohex-1-en-1-yl]methyl}piperazin-1-yl)-N-({5-cyano-6-[2-(tetrahydro-2H-pyran-4-yl)ethoxy]pyridin-3-yl}sulfonyl)-2-(1H-pyrrolo[2,3-b]pyridin-5-yloxy)benzamide]	794 nM
CC1(C)CCC(CN2CCN(c3ccc(C(=O)NS(=O)(=O)c4ccc(N[C@H]5CC[C@@H](N6CCOCC6)C5)c([N+](=O)[O-])c4)c(Oc4cnc5[nH]ccc5c4)c3)CC2)=C(c2ccc(Cl)cc2)C1 [Example 111, 4-(4-{[2-(4-chlorophenyl)-4,4-dimethylcyclohex-1-en-1-yl]methyl}piperazin-1-yl)-N-[(4-{[(1S,3R)-3-morpholin-4-ylcyclopentyl]amino)-3-nitrophenyl)sulfonyl]-2-(1H-pyrrolo[2,3-b]pyridin-5-yloxy)benzamide]	14.5 nM
CC1(C)CCC(CN2CCN(c3ccc(C(=O)NS(=O)(=O)c4cc(F)c(NCC5CCOCC5)cc4Cl)c(Oc4cnc5[nH]ccc5c4)c3)CC2)=C(c2ccc(Cl)cc2)C1 [Example 54, N-({2-chloro-5-fluoro-4-[(tetrahydro-2H-pyran-4-ylmethyl)amino]phenyl}sulfonyl)-4-(4-{[2-(4-chlorophenyl)-4,4-dimethylcyclohex-1-en-1-yl]methyl}piperazin-1-yl)-2-(1H-pyrrolo[2,3-b]pyridin-5-yloxy)benzamide]	1920 nM
CC1(C)CCC(CN2CCN(c3ccc(C(=O)NS(=O)(=O)c4ccc(OCC5(F)CCN(C6CC6)CC5)c([N+](=O)[O-])c4)c(Oc4cnc5[nH]ccc5c4)c3)CC2)=C(c2ccc(Cl)cc2)C1 [Example 173, 4-(4-{[2-(4-chlorophenyl)-4,4-dimethylcyclohex-1-en-1-yl]methyl}piperazin-1-yl)-N-({4-[(1-cyclopropyl-4-fluoropiperidin-4-yl)methoxy]-3-nitrophenyl}sulfonyl)-2-(1H-pyrrolo[2,3-b]pyridin-5-yloxy)benzamide]	5.16 nM
